Experimental data taken from US20050256103A1, “Indole derivative having piperidine ring” (Eisai Co., Ltd., priority 2004, published 2005).
Like-named read-outs stand apart in the source and are kept apart here.

Legend:
[1] = target: T1, 5-HT1A receptor (Sus scrofa, UniProt A0A4X1UTF5); test: Affinity for serotonin 1A receptor: inhibition of [3H]MPPF binding in swine hippocampal membrane fraction; conditions: for IC50: swine hippocampal membrane, 37°C 30 min; for L/H ratio: low affinity IC50 divided by high affinity IC50, 1 or smaller = no intrinsic activity, 2 or greater = intrinsic activity
T1 construct: Swine hippocampus was homogenized in a 50 mM Tris-Hcl buffer; from tissue; host or cells: swine hippocampus, membrane fraction
T1 sequence (A0A4X1UTF5 1-422): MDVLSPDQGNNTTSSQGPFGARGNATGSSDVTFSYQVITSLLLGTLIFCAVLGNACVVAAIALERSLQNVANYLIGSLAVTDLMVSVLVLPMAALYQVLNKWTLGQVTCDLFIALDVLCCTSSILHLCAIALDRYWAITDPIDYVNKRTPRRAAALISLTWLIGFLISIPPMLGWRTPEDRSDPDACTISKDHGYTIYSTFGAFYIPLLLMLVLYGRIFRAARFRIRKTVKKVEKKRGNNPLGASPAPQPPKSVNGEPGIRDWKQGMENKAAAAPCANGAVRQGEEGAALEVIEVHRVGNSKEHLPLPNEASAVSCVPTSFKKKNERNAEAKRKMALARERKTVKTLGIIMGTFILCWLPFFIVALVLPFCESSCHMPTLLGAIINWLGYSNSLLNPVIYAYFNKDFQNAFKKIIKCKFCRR
From the text: (1) The affinity of a test substance for a 5-HT1A receptor was examined by an inhibition experiment, in which the inhibitory effect of the test substance against the binding of [^3H]-4-(2′-methoxy)phenyl-1-(2′-(N-2″-pyridinyl)-p-fluorobenzamido)ethyl-piperazine (MPPF) that selectively binds to the 5-HT1A receptor in a swine hippocampal membrane fraction was examined. The 5-HT1A receptor that is a G-protein binding receptor becomes a G-protein binding state with addition of MgCl2. In contrast, it becomes a G-protein non-binding state with addition of guanylylimido diphosphate (Gpp(NH)p). […] Thus, both the affinity of a test substance to the receptor that was in a state of not binding to the G-protein and the affinity of the test substance to the receptor that was in a state of binding to the G-protein were obtained. Then, the obtained values were compared to each other, so as to estimate the level of the intrinsic activity of the test substance. Theoretically, when the value (L/H) obtained by dividing the affinity of a test substance to the receptor that is in a low affinity state (IC50 value) by the affinity of a test substance to the receptor that is in a high affinity state (IC50 value) is 1 or less, the intrinsic activity thereof is zero. The greater this value, the higher the intrinsic activity that can be obtained.
Swine hippocampus was homogenized in a 50 mM Tris-Hcl buffer (pH 7.4; hereinafter referred to as buffer A) that had been cooled on ice. The suspension was centrifuged at 40,000×g for 15 minutes. The obtained pellet was suspended in buffer solution A, and the thus obtained solution was then centrifuged at 40,000×g for 15 minutes. The same operation was repeated 2 or 3 times. The finally obtained pellet was suspended in a buffer solution A in an amount 10 times the wet weight of the swine hippocampus, so as to obtain a membrane fraction. The obtained membrane fraction was stored at −80° C. until use.
A mixture (0.5 ml) used for incubation comprised an appropriate amount of the membrane fraction, a test substance with a desired concentration, MgCl2 (final concentration: 10 mM) or Gpp(NH)p (final concentration: 1 mM), [^3H]MPPF (final concentration: 0.5 nM), dimethyl sulfoxide (final concentration: 1% (v/v)), and a 50 mM Tris-Hcl buffer (pH 7.4). The reaction was initiated with addition of the membrane fraction, and the mixture was incubated at 37° C. for 30 minutes. After completion of the incubation, the mixture was subjected to vacuum filtration with a glass filter, using Cell Harvester. The filter was washed with buffer solution A that had been cooled on ice. Thereafter, radioactivity binding to the receptor was measured with a liquid scintillation counter. Non-specific binding was defined as binding detected in the presence of 10 μM WAY-100,635.

[2] = target: T2, serotonin 1A receptor (Mus musculus, UniProt Q64264); test: Antagonistic effect on serotonin 1A receptor agonist (8-OH-DPAT)-induced hypothermia in mouse; type: in vivo; conditions: CD-1 (ICR) male mice; inhibition of hypothermia by 8-OH-DPAT 0.5 mg/kg sc; test substance 15 minutes before agonist
T2 construct: into the rectum of CD-1 (ICR) male mice (25-45 g); from tissue; host or cells: living CD-1 (ICR) male mice (in vivo)
T2 sequence (Q64264 1-421): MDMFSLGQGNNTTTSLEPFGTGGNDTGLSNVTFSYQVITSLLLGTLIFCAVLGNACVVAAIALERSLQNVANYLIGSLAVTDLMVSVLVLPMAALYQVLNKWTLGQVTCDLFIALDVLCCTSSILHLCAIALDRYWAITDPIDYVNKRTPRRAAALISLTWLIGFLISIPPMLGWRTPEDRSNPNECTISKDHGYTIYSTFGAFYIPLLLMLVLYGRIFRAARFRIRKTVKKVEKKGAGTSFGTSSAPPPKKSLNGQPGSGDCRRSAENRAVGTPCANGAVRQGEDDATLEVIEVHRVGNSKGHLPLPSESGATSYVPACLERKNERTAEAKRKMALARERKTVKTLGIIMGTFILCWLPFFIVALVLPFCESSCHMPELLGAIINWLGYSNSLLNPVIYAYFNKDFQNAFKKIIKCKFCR
Method: (1) A thermistor probe was inserted at a depth of approximately 2 cm into the rectum of CD-1 (ICR) male mice (25-45 g), so as to measure the body temperature thereof. Body temperature is decreased by subcutaneous administration of serotonin 1A receptor agonist (8-hydroxy-dipropylaminotetralin (8-OH-DPAT) 0;5 mg/kg. Since a serotonin 1A antagonist inhibits such action, the antagonistic effect of a test substance to a serotonin 1A receptor was evaluated using the inhibitory effect of the hypothermia as an index. The test results are shown in Table 2 indicated below. A test substance was administered 15 minutes before the administration of the serotonin 1A agonist. A serotonin 1A partial agonist alone decreases the body temperature, depending on the degree of the agonistic action thereof. In addition, it has a weak antagonistic effect on 8-OH-DPAT-induced hypothermia.

[3] = [3H]MPPF 0.5 nM, receptor in high affinity (G-protein binding, MgCl2 10 mM) state, read-out: High affinity IC50
[4] = [3H]MPPF 0.5 nM, receptor in low affinity (G-protein non-binding, Gpp(NH)p 1 mM) state, read-out: Low affinity IC50

## COc1ccc2c(=O)c(C)c(C)oc2c1CCN1CCC(n2ccc3ccc(C(N)=O)cc32)CC1 [Compound 36, 1-{1-[2-(7-methoxy-2,3-dimethyl-4-oxo-4H-chromen-8-yl)ethyl]piperidin-4-yl}-1H-indole-6-carboxamide]
[1]; [3]
  IC50: 0.26 nM
[1]; [4]
  IC50: 0.14 nM
[1]
  L/H ratio: 0.5
[2]
  ED50: 0.2 mg/kg, sc

## CNC(=O)c1ccc2ccn(C3CCN(CCc4cc5c(cc4OC)CCN(C)C5=O)CC3)c2c1 [Compound 38, 1-{1-[2-(6-methoxy-2-methyl-1-oxo-1,2,3,4-tetrahydroisoquinolin-7-yl)ethyl]piperidin-4-yl}-N-methyl-1H-indole-6-carboxamide]
[1]; [3]
  IC50: 0.2 nM
[1]; [4]
  IC50: 0.13 nM
[1]
  L/H ratio: 0.7
[2]
  ED50: 0.19 mg/kg, sc

## COc1ccc2ccccc2c1CCN1CCC(n2ccc3ccc(C(N)=O)cc32)CC1 [Compound 44, 1-{1-[2-(2-methoxynaphthalen-1-yl)ethyl]piperidin-4-yl}-1H-indole-6-carboxamide]
[1]; [3]
  IC50: 0.4 nM
[1]; [4]
  IC50: 0.47 nM
[1]
  L/H ratio: 1.2
[2]
  ED50: 0.41 mg/kg, sc

## COc1cc2ccccc2cc1CCN1CCC(n2ccc3ccc(C(N)=O)cc32)CC1 [Compound 45, 1-{1-[2-(3-methoxynaphthalen-2-yl)ethyl]piperidin-4-yl}-1H-indole-6-carboxamide]
[1]; [3]
  IC50: 0.58 nM
[1]; [4]
  IC50: 0.69 nM
[1]
  L/H ratio: 1.2
[2]
  ED50: 0.26 mg/kg, sc

## COc1ccc2c(c1CCN1CCC(n3ccc4ccc(C(N)=O)cc43)CC1)OCCC2O (stereo not drawn) [Compound 46, 1-{1-[2-(4-hydroxy-7-methoxychroman-8-yl)ethyl]piperidin-4-yl}-1H-indole-6-carboxamide]
[1]; [3]
  IC50: 0.24 nM
[1]; [4]
  IC50: 0.33 nM
[1]
  L/H ratio: 1.4
[2]
  ED50: 0.3 mg/kg, sc

## COc1ccc2c(c1CCN1CCC(n3ccc4ccc(C(N)=O)cc43)CC1)OCCC2=O [Compound 47, 1-{1-[2-(7-methoxy-4-oxochroman-8-yl)ethyl]piperidin-4-yl}-1H-indole-6-carboxamide]
[1]; [3]
  IC50: 0.23 nM
[1]; [4]
  IC50: 0.23 nM
[1]
  L/H ratio: 1
[2]
  ED50: 0.21 mg/kg, sc

## CNC(=O)c1ccc2ccn(C3CCN(CCc4c(OC)ccc5c4OC(C)(C)CC5O)CC3)c2c1 (stereo not drawn) [Compound 48, 1-{1-[2-(4-hydroxy-7-methoxy-2,2-dimethylchroman-8-yl)ethyl]piperidin-4-yl}-N-methyl-1H-indole-6-carboxamide]
[1]; [3]
  IC50: 1.2 nM
[1]; [4]
  IC50: 1.1 nM
[1]
  L/H ratio: 0.9
[2]
  ED50: 0.06 mg/kg, sc

## COc1ccc2c(c1CCN1CCC(n3ccc4ccc(C(N)=O)cc43)CC1)CCC2O (stereo not drawn) [Compound 49, 1-{1-[2-(1-hydroxy-5-methoxyindan-4-yl)ethyl]piperidin-4-yl}-1H-indole-6-carboxamide]
[1]; [3]
  IC50: 0.22 nM
[1]; [4]
  IC50: 0.27 nM
[1]
  L/H ratio: 1.2
[2]
  ED50: 0.28 mg/kg, sc

## COc1cc2cccnc2cc1CCN1CCC(n2ccc3ccc(C(N)=O)cc32)CC1 [Compound 51, 1-{1-[2-(6-methoxyquinolin-7-yl)ethyl]piperidin-4-yl}-1H-indole-6-carboxamide]
[1]; High affinity IC50, [3H]MPPF 0.5 nM, receptor in high affinity (G-protein binding, MgCl2 10 mM) state
  IC50: 0.18 nM
[1]; Low affinity IC50, [3H]MPPF 0.5 nM, receptor in low affinity (G-protein non-binding, Gpp(NH)p 1 mM) state
  IC50: 0.17 nM
[1]
  L/H ratio: 0.9
[2]
  ED50: 0.66 mg/kg, sc

## COc1cc2c(cc1CCN1CCC(n3ccc4ccc(C(N)=O)cc43)CC1)N(C(C)=O)CCC2 [Compound 52, 1-{1-[2-(1-acetyl-6-methoxy-1,2,3,4-tetrahydroquinolin-7-yl)ethyl]piperidin-4-yl}-1H-indole-6-carboxamide]
[1]; [3]
  IC50: 0.22 nM
[1]; [4]
  IC50: 0.2 nM
[1]
  L/H ratio: 0.9
[2]
  ED50: 0.5 mg/kg, sc

## COc1cc2c(cc1CCN1CCC(n3ccc4ccc(C(N)=O)cc43)CC1)N(C)CCC2 [Compound 53, 1-{1-[2-(6-methoxy-1-methyl-1,2,3,4-tetrahydroquinolin-7-yl)ethyl]piperidin-4-yl}-1H-indole-6-carboxamide]
[1]; [3]
  IC50: 0.31 nM
[1]; [4]
  IC50: 0.46 nM
[1]
  L/H ratio: 1.5
[2]
  ED50: 0.3 mg/kg, sc

## COc1ccc2c(c1CCN1CCC(n3ccc4ccc(C(N)=O)cc43)CC1)CCCN2C(C)=O [Compound 54, 1-{1-[2-(1-acetyl-6-methoxy-1,2,3,4-tetrahydroquinolin-5-yl)ethyl]piperidin-4-yl}-1H-indole-6-carboxamide]
[1]; [3]
  IC50: 0.18 nM
[1]; [4]
  IC50: 0.13 nM
[1]
  L/H ratio: 0.7
[2]
  ED50: 0.84 mg/kg, sc

## COc1cc2c(cc1CCN1CCC(n3ccc4ccc(C(N)=O)cc43)CC1)N(C)C(=O)CC2 [Compound 57, 1-{1-[2-(6-methoxy-1-methyl-2-oxo-1,2,3,4-tetrahydroquinolin-7-yl)ethyl]piperidin-4-yl}-1H-indole-6-carboxamide]
[1]; [3]
  IC50: 0.18 nM
[1]; [4]
  IC50: 0.24 nM
[1]
  L/H ratio: 1.3
[2]
  ED50: 0.1 mg/kg, sc

## CNC(=O)c1ccc2ccn(C3CCN(CCc4cc5c(cc4OC)CCC(=O)N5C)CC3)c2c1 [Compound 58, 1-{1-[2-(6-methoxy-1-methyl-2-oxo-1,2,3,4-tetrahydroquinolin-7-yl)ethyl]piperidin-4-yl}-N-methyl-1H-indole-6-carboxamide]
[1]; [3]
  IC50: 0.33 nM
[1]; [4]
  IC50: 0.39 nM
[1]
  L/H ratio: 1.2
[2]
  ED50: 0.53 mg/kg, sc

## CCN1C(=O)CCc2cc(OC)c(CCN3CCC(n4ccc5ccc(C(N)=O)cc54)CC3)cc21 [Compound 59, 1-{1-[2-(1-ethyl-6-methoxy-2-oxo-1,2,3,4-tetrahydroquinolin-7-yl)ethyl]piperidin-4-yl}-1H-indole-6-carboxamide]
[1]; [3]
  IC50: 0.19 nM
[1]; [4]
  IC50: 0.12 nM
[1]
  L/H ratio: 0.6
[2]
  ED50: 0.3 mg/kg, sc
